In ChEMBL document CHEMBL5543155, “Design, Synthesis, and Biological Evaluation of β-Trifluoroethoxydimethyl Selenides as Potent Antiosteoporosis Agents” (J Med Chem, 2024) one finds Activity, inhibition and Kd data, which are given here for one molecule.

Data set [1] has as its system BMMC. Nature of the data set: Anti-osteoclastogenesis activity in M-CSF/RANKL-induced C57BL/6 mouse BMMC cells assessed as reduction in size of TRAP-positive osteoclasts at 0 to 10 uM incubated for 6 days with media replacement for every 2 days by TRAP-staining based light microscopic analysis. The note with it: dose 0-10 µM, time 6.0 day. Format: functional, cell-based.

Data set [2] has as its system BMMC. The experiment in a line: Anti-osteoclastogenesis activity in M-CSF/RANKL-induced C57BL/6 mouse BMMC cells assessed as downregulation of DC-STAMP gene expression incubated for 5 days by qRT-PCR analysis. The note with it: dose 0-10 µM, time 5.0 day. Format: functional, cell-based. For orientation: Real-time PCR tracks product formation cycle by cycle.
Data set [3] concerns the target T1, NF-kappa-B inhibitor alpha (Mus musculus) (UniProt Q9Z1E3).
T1 sequence (whole entry): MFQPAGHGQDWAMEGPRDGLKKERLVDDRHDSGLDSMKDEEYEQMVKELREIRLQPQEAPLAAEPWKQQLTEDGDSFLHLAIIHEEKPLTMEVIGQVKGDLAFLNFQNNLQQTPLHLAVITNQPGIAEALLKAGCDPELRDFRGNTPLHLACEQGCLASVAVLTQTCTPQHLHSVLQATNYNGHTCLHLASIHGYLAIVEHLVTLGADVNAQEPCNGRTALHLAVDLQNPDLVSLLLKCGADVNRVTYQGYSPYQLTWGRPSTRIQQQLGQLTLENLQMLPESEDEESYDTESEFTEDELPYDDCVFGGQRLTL
Nature of the data set: Inhibition of RANKL-induced IkappaBalpha degradation in C57BL/6 mouse BMMC cells at 5 uM pretreated for 6 hrs followed by RANKL stimulation and measured upto 60 mins by Western blot analysis. The data set is classed as cell-based. The following applies: time <= 7.0 hrs. (A western blot detects proteins with antibodies after separation by electrophoresis.)

The target of data set [4] is Transcription factor p65 (Mus musculus) (UniProt Q04207). Nature of the data set: Inhibition of p65 phosphorylation in RANKL-induced C57BL/6 mouse BMMC cells at 5 uM pretreated for 6 hrs followed by RANKL stimulation and measured upto 60 mins by Western blot analysis. Format: cell-based. The note with it: time <= 7.0 hrs.
The subject of data set [5] is Mus musculus. The experiment in a line: Anti-osteoporosis activity in ovariectomized C57BL/6 mouse assessed as reduction in bone loss by measuring decrease in trabecular spacing at 10 mg/kg, ip administered every other day for 8 weeks by micro-CT analysis. Format: functional, organism-based.
Data set [6] relates to BMMC. The experiment in a line: Inhibition of ERK phosphorylation in RANKL-induced C57BL/6 mouse BMMC cells at 5 uM pretreated for 6 hrs followed by RANKL stimulation and measured upto 60 mins by Western blot analysis. The data set is classed as cell-based. The note with it: time <= 7.0 hrs.
The test system of data set [7] is BMMC. Nature of the data set: Anti-osteoclastogenesis activity in M-CSF/RANKL-induced C57BL/6 mouse BMMC cells assessed as downregulation of MMP-9 gene expression incubated for 5 days by qRT-PCR analysis. Format: functional, cell-based. The note with it: dose 0-10 µM, time 5.0 day.
Data set [8] concerns the target T1, NF-kappa-B inhibitor alpha (Mus musculus). Nature of the data set: Inhibition of RANKL-induced IkappaBalpha phosphorylation in C57BL/6 mouse BMMC cells at 5 uM pretreated for 6 hrs followed by RANKL stimulation and measured upto 60 mins by Western blot analysis. Format: cell-based. The note with it: time <= 7.0 hrs.
For data set [9], the system named is BMMC. Nature of the data set: Anti-osteoclastogenesis activity in M-CSF/RANKL-induced C57BL/6 mouse BMMC cells cultured in hydroxyapatite-coated plates assessed as reduction in bone resorbed area per osteoclast incubated for 4 days by microscopic analysis. The data set is classed as functional, cell-based. The note with it: dose 2.5-10 µM, time 4.0 day.
The target in data set [10] is T2, Tumor necrosis factor ligand superfamily member 11 (Mus musculus, UniProt O35235).
T2 sequence (O35235 whole entry): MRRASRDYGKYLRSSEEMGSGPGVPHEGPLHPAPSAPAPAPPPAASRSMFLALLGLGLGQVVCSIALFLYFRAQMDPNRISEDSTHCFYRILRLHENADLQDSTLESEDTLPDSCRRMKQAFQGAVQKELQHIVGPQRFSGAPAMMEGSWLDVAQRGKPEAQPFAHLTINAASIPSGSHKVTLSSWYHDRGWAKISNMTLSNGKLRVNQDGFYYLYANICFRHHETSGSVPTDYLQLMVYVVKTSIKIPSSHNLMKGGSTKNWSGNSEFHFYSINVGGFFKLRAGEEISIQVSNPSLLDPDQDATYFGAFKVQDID
Nature of the data set: Binding affinity to mouse RANKL assessed as dissociation constant by SPR analysis.

Data set [11] addresses T3, Tumor necrosis factor ligand superfamily member 11 (Mus musculus) (UniProt O35235).
T3 sequence (whole entry): T2 sequence (O35235 whole entry)
The experiment in a line: Binding affinity to mouse RANKL assessed as increase in resonance units measured upto 240 mins by SPR analysis. The note with it: dose 15.63-500 µM.

The subject of data set [12] is RAW264.7. Nature of the data set: Cytotoxicity against mouse RAW264.7 cells assessed as cell destruction at 5 uM incubated for 48 hrs by MTT assay. The data set is classed as toxicity, cell-based. The following applies: raw264.7, 48 h. Background: Formazan colour is commonly taken as a measure of viable cells.
The test system of data set [13] is BMMC. Nature of the data set: Anti-osteoclastogenesis activity in M-CSF/RANKL-induced C57BL/6 mouse BMMC cells assessed as prevention of osteoclasts precursor differentiation at 5 uM measured on day 1 to 3 by TRAP-staining based light microscopic analysis. The note with it: time 1-3 day. The data set is classed as functional, cell-based.
For data set [14], the system named is BMMC. Nature of the data set: Anti-osteoclastogenesis activity in M-CSF/RANKL-induced C57BL/6 mouse BMMC cells assessed as reduction in number of TRAP-positive osteoclasts at 0 to 10 uM incubated for 6 days with media replacement for every 2 days by TRAP-staining based light microscopic analysis. The data set is classed as functional, cell-based. The following applies: dose 0-10 µM, time 6.0 day.

Data set [15] has as its system Mus musculus. Nature of the data set: Anti-osteoporosis activity in ovariectomized C57BL/6 mouse assessed as reduction in bone loss by measuring decrease in TRAP-positive cells around trabecula at 10 mg/kg, ip administered every other day for 8 weeks by TRAP staining based analysis. Format: functional, organism-based.
The test system of data set [16] is MC3T3-E1. Nature of the data set: Induction of osteoblast differentiation in mouse MC3T3-E1 cells assessed as increase in ALP activity measured after 7 days by ALP staining based inverted microscopic analysis. Format: functional, cell-based. The following applies: dose 2.5-10 µM, time 7.0 day.
For data set [17], the system named is BMMC. The experiment in a line: Cytotoxicity against C57BL/6 mouse BMMC cells assessed as reduction in cell viability at 30 uM incubated for 48 hrs by MTT assay. Format: toxicity, cell-based.
Data set [18] can be described thus: Toxicity in OVX osteoporotic C57BL/6 mouse assessed as effect on size and surface gloss of heart at 10 mg/kg, ip administered every other day for 8 weeks by H and E staining based analysis. Format: organism-based. The following applies: in vivo, 1344 h.
Data set [19] can be described thus: Toxicity in OVX osteoporotic C57BL/6 mouse assessed as effect on size and surface gloss of spleen at 10 mg/kg, ip administered every other day for 8 weeks by H and E staining based analysis. Format: organism-based. The following applies: in vivo, 1344 h.
Data set [20] in a line: Toxicity in OVX osteoporotic C57BL/6 mouse assessed as body weight loss at 10 mg/kg, ip administered every other day for 8 weeks and measured every week. Format: organism-based. The note with it: in vivo, 1344 h.
For data set [21], the system named is RAW264.7. The experiment in a line: Inhibition of RANKL-induced osteoclast differentiation in mouse RAW264.7 cells at 5 uM incubated for 4 days with media replacement for every 2 days by TRAP-staining based light microscopic analysis. The data set is classed as functional, cell-based. The note with it: time 4.0 day.
The subject of data set [22] is BMMC. The experiment in a line: Anti-osteoclastogenesis activity in M-CSF/RANKL-induced C57BL/6 mouse BMMC cells assessed as downregulation of C-Fos gene expression incubated for 5 days by qRT-PCR analysis. The data set is classed as functional, cell-based. The note with it: dose 0-10 µM, time 5.0 day.
In data set [23] the test system is BMMC. The experiment in a line: Effect on total p38 protein expression in RANKL-induced C57BL/6 mouse BMMC cells at 5 uM pretreated for 6 hrs followed by RANKL stimulation and measured upto 60 mins by Western blot analysis. Format: functional, cell-based. The following applies: time <= 7.0 hrs.
The subject of data set [24] is MC3T3-E1. The experiment in a line: Induction of osteoblast differentiation in mouse MC3T3-E1 cells assessed as bone formation by measuring increase in calcium deposition measured after 21 days by Alizarin red S staining based inverted microscopic analysis. The data set is classed as functional, cell-based. The following applies: dose 2.5-10 µM, time 21.0 day.

Active and inactive are the calls of the source. The rule behind the calls is not given here.

Sequence of Transcription factor p65 (Mus musculus) (Q04207 whole entry): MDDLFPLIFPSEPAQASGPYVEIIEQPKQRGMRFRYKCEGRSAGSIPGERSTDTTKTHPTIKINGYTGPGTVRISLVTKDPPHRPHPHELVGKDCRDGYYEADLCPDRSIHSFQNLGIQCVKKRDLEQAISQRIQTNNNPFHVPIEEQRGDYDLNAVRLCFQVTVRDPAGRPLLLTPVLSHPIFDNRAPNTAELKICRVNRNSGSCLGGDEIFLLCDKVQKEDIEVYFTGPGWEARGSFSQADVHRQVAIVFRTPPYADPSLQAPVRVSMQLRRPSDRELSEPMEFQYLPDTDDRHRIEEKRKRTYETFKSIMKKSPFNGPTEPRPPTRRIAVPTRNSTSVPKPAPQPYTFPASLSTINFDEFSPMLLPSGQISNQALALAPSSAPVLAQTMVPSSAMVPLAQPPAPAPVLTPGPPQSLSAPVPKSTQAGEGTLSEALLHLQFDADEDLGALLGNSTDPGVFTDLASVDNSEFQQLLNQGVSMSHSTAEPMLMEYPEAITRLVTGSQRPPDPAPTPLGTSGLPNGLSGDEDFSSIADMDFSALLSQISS

One may read the Kd as the constant that tells how readily two partners part at equilibrium. Regarding `CC(C)(OCC(F)(F)F)C([Se]c1ccccc1)C(=O)Nc1ccncc1` (centres undefined), the result in data set [1], in data set [5], in data set [11], in data set [13], in data set [14] and in data set [15] was Active. For the same molecule, the Activity result in [2] is “Dose-Dependent Effect”; in data set [7], “Dose-Dependent Effect”; in [9], “Dose-Dependent Effect”; in data set [12], “Non-Toxic”; in data set [16] it was “Dose-Dependent Effect”; in [17], “Non-Toxic”. The Activity result is “Non-Toxic” in data set [18]; “Non-Toxic” in data set [19]; “Non-Toxic” in data set [20]; “Dose-Dependent Effect” in [22]; “Dose-Dependent Effect” in data set [24]. The inhibition result in data set [3], in data set [4], in data set [6], in [8] and in data set [21] was “Active” throughout. The Kd in data set [10] worked out at 268 µM. The outcome in data set [23] was inactive.
